*1 amine or outer side, *2 acyl side, *3 side chain or, on linkers, in order; H or OH if unused. Where a SMILES comes first, the peptide text is derived from it. Side-chain parts run from the residue outwards. [ ]: non-standard residue; d: D form. The star is where a group is joined. C20 diacid = O=C(O)CCCCCCCCCCCCCCCCCCC(=O)*; C16 diacid = O=C(O)CCCCCCCCCCCCCCC(=O)*; γGlu = O=C(O)[C@H](CCC(=O)[*:2])N[*:1]; NMeI = CC[C@H](C)[C@H](NC)C(=O)O; Pentanoyl = CCCCC(=O)*; AEEA = NCCOCCOCC(=O)O; Aib = CC(C)(N)C(=O)O
Key:
human CRF2a receptor = target: T1, human CRF2a receptor (Homo sapiens, UniProt Q13324); experiment: Activity at human CRF2a receptor, cAMP functional assay in TeloHEAC cells; format: cell-based; details: TeloHEAC cells stably expressing human CRF2a receptor, relative to urocortin 2 (100 nM = 100%)
T1 construct: expressed in transfected cells; host or cells: TeloHEAC cells
T1 sequence (Q13324 1-411): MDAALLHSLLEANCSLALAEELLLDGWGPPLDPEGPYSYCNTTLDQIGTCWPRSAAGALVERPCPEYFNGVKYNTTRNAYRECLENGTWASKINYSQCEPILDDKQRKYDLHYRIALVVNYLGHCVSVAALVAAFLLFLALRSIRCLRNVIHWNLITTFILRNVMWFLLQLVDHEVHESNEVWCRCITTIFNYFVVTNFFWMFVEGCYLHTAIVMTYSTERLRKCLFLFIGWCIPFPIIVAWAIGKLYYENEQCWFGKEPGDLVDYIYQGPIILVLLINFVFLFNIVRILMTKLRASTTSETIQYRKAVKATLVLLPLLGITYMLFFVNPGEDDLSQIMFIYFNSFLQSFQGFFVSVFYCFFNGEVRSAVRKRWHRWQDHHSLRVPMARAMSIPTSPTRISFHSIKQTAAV
How it was run: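 TeloHEAC cells stably expressing human CRF2a (10000 cells/well, suspended in HBSS/20 mM HEPES with 2 mM IBMX) were exposed to compounds for 30 min at 37 °C. cAMP was read as the 665/620 nm fluorescence ratio after 1 h at room temperature. EC50 was derived relative to 100 nM urocortin 2, set as 100%.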

CFR1R receptor = target: T2, CFR1R receptor (Homo sapiens, UniProt P34998); experiment: Activity at anti-target CFR1R receptor, cAMP assay in CRF1R-overexpression CHO-K1 cells; format: cell-based; details: 100% = Sauvagine at 100 nM; for EC50: cAMP
T2 construct: host or cells: CHO-K1 (clone 2)
T2 sequence (P34998 24-415): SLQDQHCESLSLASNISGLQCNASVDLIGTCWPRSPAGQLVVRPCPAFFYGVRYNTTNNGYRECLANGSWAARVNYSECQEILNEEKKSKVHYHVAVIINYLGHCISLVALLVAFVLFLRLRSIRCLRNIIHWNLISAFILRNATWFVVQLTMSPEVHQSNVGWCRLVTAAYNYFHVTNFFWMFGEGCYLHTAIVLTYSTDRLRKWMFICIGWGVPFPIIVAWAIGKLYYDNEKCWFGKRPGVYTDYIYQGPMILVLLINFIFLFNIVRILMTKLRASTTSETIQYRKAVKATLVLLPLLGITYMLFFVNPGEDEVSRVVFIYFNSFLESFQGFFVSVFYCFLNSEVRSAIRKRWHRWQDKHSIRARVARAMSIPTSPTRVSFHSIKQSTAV
How it was run: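 Run as for the TeloHAEC line, except the full-activation control well received Sauvagine (100 nM) and final density was 4000 cells/well. Cells from clone 2 came from frozen aliquots of near-confluent cultures.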

[1] = Chemical stability in buffer (pH 7.4 / pH 4.5), % purity loss; format: physicochemical; details: 40° C. vs 5° C., 14 or 28 days
Description: Solubility and chemical stability were studied in 100 mM phosphate buffer (pH 7.4) and 100 mM acetate buffer (pH 4.5). Test compound powders were dissolved in both buffers at a target concentration of 10 mg/mL and incubated for 1 hour at room temperature. After centrifugation at 2500 rcf for 15 minutes, 10 μL of supernatant was diluted with 190 μL of the incubation buffer and analyzed by LC-UV (Acquity UPLC-DAD, Waters). Solubility was calculated by comparing the peak area of the test compound in the buffer sample with the peak area of the same compound dissolved at 0.5 mg/mL in water:acetonitrile 1:1, 0.1% formic acid.
From the centrifuged supernatant, two additional 80 μL aliquots were collected and diluted with 160 μL of incubation buffer. One aliquot was stored at 5° C., while the other was stored at 40° C. After 14 or 28 days, the samples were analyzed by LC-UV. Chemical stability was calculated as % loss using the following equations: […]

Sprague Dawley rats = experiment: Effect on systolic blood pressure, telemetry in Sprague Dawley rats; format: in vivo, rat; details: 0.1 mg/kg SC; for Systolic blood pressure (Mean) % change from baseline, 8 h / Systolic blood pressure (Mean) % change from baseline, 12 h / Systolic blood pressure (Mean) % change from baseline, 24 h: n=2; for Duration of action: last time point with an effect on BP still observed
Description: The effect of the compounds on systolic blood pressure was determined in telemetry studies in Sprague Dawley rats at a dosage of 0.1 mg/kg SC.
The rats were previously implanted with a telemetry device (DSI, Saint-Paul, USA, HD-S10, HD-S11 or HD S21) and allowed to recover for a minimum period of 2 weeks before treatment with vehicle or the different peptides. Blood pressure (BP) was recorded through a catheter inserted into the abdominal aorta. The device body was placed in the abdomen. The animals were allowed to recover from surgery for at least 10 days before the first administration of test drug or vehicle.
The chronically instrumented rats of the telemetry studies were individually housed immediately after surgery and then housed in pairs with a non-instrumented companion after recovery.
Systolic blood pressure was recorded for one hour before treatment (basal period). Thereafter, the subcutaneous administration of the test compound or its vehicle was performed, under continuous recording of the signal up to 48 hours, analysed and expressed as % change from baseline.
Representative data are presented in Table 13 below, in which “Duration of action” indicates the last time point for which an effect on BP was still observed (n=2 animals/peptide)

EC50 (human CRF2a receptor) [nM] | Emax (% I) (CFR1R receptor) | EC50 (CFR1R receptor) [nM] | Buffer stability pH 4.5 % purity loss ([1]; 100 mM acetate buffer pH 4.5) [%] | Buffer stability pH 7.4 % purity loss ([1]; 100 mM phosphate buffer pH 7.4) [%] | Structure (SMILES) | Systolic blood pressure (Mean) % change from baseline, 8 h (Sprague Dawley rats) [%] | Systolic blood pressure (Mean) % change from baseline, 12 h (Sprague Dawley rats) [%] | Systolic blood pressure (Mean) % change from baseline, 24 h (Sprague Dawley rats) [%] | Duration of action (Sprague Dawley rats) [h]
1.61 | 0 | > 250 | 0 | 4.5 | CC[C@H](C)[C@H](NC(=O)[C@H](CCC(N)=O)NC(=O)[C@H](CCCCN)NC(=O)[C@H](CC(N)=O)NC(=O)[C@@H](NC(=O)[C@H](CCC(=O)O)NC(=O)[C@H](C)NC(=O)[C@H](CCC(N)=O)NC(=O)[C@H](CCC(=O)O)NC(=O)[C@H](CCCNC(=N)N)NC(=O)[C@H](CCC(N)=O)NC(=O)[C@H](CCCCN)NC(=O)[C@H](CCCCN)NC(=O)[C@H](CCC(N)=O)NC(=O)[C@H](CCCCN)NC(=O)[C@H](CCC(=O)O)NC(=O)[C@H](CCC(N)=O)NC(=O)[C@H](CCC(=O)O)NC(=O)[C@H](CC(C)C)NC(=O)[C@H](CC(C)C)NC(=O)[C@@H](NC(=O)[C@H](CCCCN)NC(=O)[C@H](CCCCNC(=O)CC[C@H](NC(=O)CCCCCCCCCCCCCCC(=O)O)C(=O)O)NC(=O)[C@H](CC(C)C)NC(=O)[C@H](CCCCN)NC(=O)[C@@H](NC(=O)[C@@H]1CCCN1C(=O)[C@H](NC(=O)[C@H](CC(=O)O)NC(=O)[C@H](CC(C)C)NC(=O)[C@H](CO)NC(=O)[C@H](CC(C)C)NC(=O)[C@@H](N)C(C)C)C(C)C)[C@@H](C)CC)[C@@H](C)CC)[C@@H](C)O)C(=O)N[C@@H](CC(C)C)C(=O)N[C@@H](C)C(=O)N[C@@H](CCC(N)=O)C(=O)N[C@H](C(N)=O)C(C)C [compound 34] (H-VLSLD[dV]PIKLK([γGlu-C16 diacid])KILLEQEKQKKQREQAETNKQILAQV-NH2) | – | – | – | –
0.27 | 32 | > 250 | – | – | CCCCC(=O)N[C@H](C(=O)N[C@@H](CC(C)C)C(=O)N[C@@H](CO)C(=O)N[C@@H](CC(C)C)C(=O)N[C@@H](CC(=O)O)C(=O)N[C@@H](C(=O)N1CCC[C@H]1C(=O)N[C@H](C(=O)N[C@@H](CCCCN)C(=O)N[C@@H](CC(C)C)C(=O)N[C@@H](CCCCNC(=O)CC[C@H](NC(=O)CCCCCCCCCCCCCCCCCCC(=O)O)C(=O)O)C(=O)N[C@@H](CCCCN)C(=O)N[C@H](C(=O)N[C@@H](CC(C)C)C(=O)N[C@@H](CC(C)C)C(=O)N[C@@H](CCC(=O)O)C(=O)N[C@@H](CCC(N)=O)C(=O)N[C@@H](CCC(=O)O)C(=O)N[C@@H](CCCCN)C(=O)N[C@@H](CCC(N)=O)C(=O)N[C@@H](CCCCN)C(=O)NC(C)(C)C(=O)N[C@@H](CCC(N)=O)C(=O)N[C@@H](CCCNC(=N)N)C(=O)N[C@@H](CCC(=O)O)C(=O)N[C@@H](CCC(N)=O)C(=O)N[C@@H](C)C(=O)N[C@@H](CCC(=O)O)C(=O)N[C@H](C(=O)N[C@@H](CC(N)=O)C(=O)NC(C)(C)C(=O)N[C@@H](CCC(N)=O)C(=O)N[C@H](C(=O)N[C@@H](CC(C)C)C(=O)N[C@@H](C)C(=O)N[C@@H](CCC(N)=O)C(=O)N[C@H](C(N)=O)C(C)C)[C@@H](C)CC)[C@@H](C)O)[C@@H](C)CC)[C@@H](C)CC)C(C)C)C(C)C [compound 220] (Pentanoyl-VLSLD[dV]PIKLK([γGlu-C20 diacid])KILLEQEKQK[Aib]QREQAETN[Aib]QILAQV-NH2) | −17 | −14 | −11 | >24
0.11 | 43 | – | – | – | CC[C@H](C)[C@H](NC)C(=O)N[C@H](C(=O)N[C@@H](CC(C)C)C(=O)N[C@@H](CO)C(=O)N[C@@H](CC(C)C)C(=O)N[C@@H](CC(=O)O)C(=O)N[C@@H](C(=O)N1CCC[C@H]1C(=O)N[C@H](C(=O)NCC(=O)N[C@@H](CC(C)C)C(=O)N[C@@H](CCCCNC(=O)CC[C@H](NC(=O)CCCCCCCCCCCCCCCCCCC(=O)O)C(=O)O)C(=O)N[C@@H](CCCCN)C(=O)N[C@H](C(=O)N[C@@H](CC(C)C)C(=O)N[C@@H](CC(C)C)C(=O)N[C@@H](CCC(=O)O)C(=O)N[C@@H](CCC(N)=O)C(=O)N[C@@H](CCC(=O)O)C(=O)N[C@@H](CCCCN)C(=O)N[C@@H](CCC(N)=O)C(=O)N[C@@H](CCCCN)C(=O)N[C@@H](CCCCN)C(=O)N[C@@H](CCC(N)=O)C(=O)N[C@@H](CCCNC(=N)N)C(=O)N[C@@H](CCC(=O)O)C(=O)N[C@@H](CCC(N)=O)C(=O)N[C@@H](C)C(=O)N[C@@H](CCC(=O)O)C(=O)N[C@H](C(=O)N[C@@H](CC(N)=O)C(=O)NC(C)(C)C(=O)N[C@@H](CCC(N)=O)C(=O)N[C@H](C(=O)N[C@@H](CC(C)C)C(=O)N[C@@H](C)C(=O)N[C@@H](CCC(N)=O)C(=O)N[C@H](C(N)=O)C(C)C)[C@@H](C)CC)[C@@H](C)O)[C@@H](C)CC)[C@@H](C)CC)C(C)C)C(C)C [compound 229] (H-[NMeI]VLSLD[dV]PIGLK([γGlu-C20 diacid])KILLEQEKQKKQREQAETN[Aib]QILAQV-NH2) | −12 | −9 | −5 | >24
0.16 | 30 | > 250 | – | – | CC[C@H](C)[C@H](NC(C)=O)C(=O)N[C@H](C(=O)N[C@@H](CC(C)C)C(=O)N[C@@H](CO)C(=O)N[C@@H](CC(C)C)C(=O)N[C@@H](CC(=O)O)C(=O)N[C@@H](C(=O)N1CCC[C@H]1C(=O)N[C@H](C(=O)N[C@@H](CCCCN)C(=O)N[C@@H](CC(C)C)C(=O)N[C@@H](CCCCNC(=O)COCCOCCNC(=O)CC[C@H](NC(=O)CCCCCCCCCCCCCCCCCCC(=O)O)C(=O)O)C(=O)N[C@@H](CCCCN)C(=O)N[C@H](C(=O)N[C@@H](CC(C)C)C(=O)N[C@@H](CC(C)C)C(=O)N[C@@H](CCC(=O)O)C(=O)N[C@@H](CCC(N)=O)C(=O)N[C@@H](CCC(=O)O)C(=O)N[C@@H](CCCCN)C(=O)N[C@@H](CCC(N)=O)C(=O)N[C@@H](CCCCN)C(=O)N[C@@H](CCCCN)C(=O)N[C@@H](CCC(N)=O)C(=O)N[C@@H](CCCNC(=N)N)C(=O)N[C@@H](CCC(=O)O)C(=O)N[C@@H](CCC(N)=O)C(=O)N[C@@H](C)C(=O)N[C@@H](CCC(=O)O)C(=O)N[C@H](C(=O)N[C@@H](CC(N)=O)C(=O)NC(C)(C)C(=O)N[C@@H](CCC(N)=O)C(=O)N[C@H](C(=O)N[C@@H](CC(C)C)C(=O)N[C@@H](C)C(=O)N[C@@H](CCC(N)=O)C(=O)N[C@H](C(N)=O)C(C)C)[C@@H](C)CC)[C@@H](C)O)[C@@H](C)CC)[C@@H](C)CC)C(C)C)C(C)C [compound 230] (Ac-IVLSLD[dV]PIKLK([AEEA-γGlu-C20 diacid])KILLEQEKQKKQREQAETN[Aib]QILAQV-NH2) | −15 | −16 | 3 | 23

Source: patent US20260001928A1 (CORTERIA PHARMACEUTICALS, priority 2022, published 2026)
